One molecule from US12139458B2, “(2,5-dioxopyrrolidin-1-yl)(phenyl)-acetamide derivatives and their use in the treatment of neurological diseases” (UNIWERSYTET JAGIELLONSKI, priority 2019, dated 2024) can be followed below.

As a reminder, the ED50 is the dose that gives a 50% effect, or the effect in half of the subjects. A higher ED50 goes with weaker potency.

In series [1] the test system is male Swiss albino mice (CD-1). Put plainly: Psychomotor seizure test 6 Hz (44 mA). In kind it is in vivo. The procedure: All procedures were carried out in accordance with applicable Polish and international guidelines on the ethics of animal testing, after obtaining appropriate institutional approval. The substances were administered intraperitoneally (i.p.), in 1% aqueous solution of Tween, as single injections with a volume of 10 ml/kg, 30 minutes before the given test. Screening was performed on groups consisted of 4 mice. […] All tests were carried out based on the procedures described in the specialist literature.
In the 6 Hz test, seizures were induced by an electric stimulus of 32 mA and/or 44 mA and a frequency of 6 pulses per second. […] Before starting the test, the eye surface was gently moistened with a solution of local anesthetic (1% lidocaine solution). The study was conducted 30 minutes after intraperitoneal administration of the compounds at various doses. An electrical pulse was delivered continuously for a period of 3 seconds, followed by observation of the animal for a period of 10 seconds. During this time, immobility or stun associated with rearing, forelimb clonus, twitching of the vibrissae and Straub's tail were observed. These symptoms persist throughout the observation period, indicating the occurrence of psychomotor seizures in mice.
To perform a statistical evaluation of the results, one-way ANOVA variance analysis and Dunnett's post hoc test (multiple comparison test) were used. The value at the significance level p<0.05 was considered statistically significant.

Series [2] is described as follows: Metabolic stability in human liver microsomes. In kind it is in vitro ADME. The procedure: Metabolic stability. The metabolic stability of compound 6 was evaluated using human liver microsomes (HLMs). Internal clearance values CLint were calculated by monitoring changes in compound concentration in the presence of microsomes per unit of time, according to the procedure proposed by Obach R. S. (Obach, R. S. Drug Metab. Dispos. 1999, 27, 1350-1359).
Metabolic stability tests—methodology. Metabolic stability studies for compound 6 were performed using HLMs (Promega, Madison, WI, USA). For this purpose, 10 μL of compound 6 at a concentration of 1000 μM was diluted with 132 μL with tris-HCl buffer (100 mM, pH 7.4), followed by the addition of 8 μL of appropriate microsomes. The reaction mixture was preincubated at 37° C. for 5 minutes, followed by the addition of 50 μL of NADPH Regeneration System, supplied by Promega (Madison, WI, USA). After mixing, the whole mixture was incubated at 37° C. for 120 minutes. To complete the reaction, 200 μL of cold methanol was added to the tubes and centrifuged. The supernatant was subjected to UPLC/MS analysis, including fragmentation analysis. Four mixtures of 6 with HLMs were prepared to determine the internal clearance CLint. Each of these reactions was completed at a different time point, after 5, 15, 30 and 45 min, by the addition of cold methanol containing 50 μM internal standard. Then, according to literature guidelines (Obach, R. S. Drug Metab. Dispos. 1999, 27, 1350-1359), based on the plot of the relationship between the height of the peak from 6 and the height of the internal standard, the regression equation was determined and the reaction rate constant k was calculated. Then the constant k was substituted to equation (1).
The calculated t1/2 value was then substituted into equation (2): […]
(Microsomes from liver hold many membrane-bound enzymes, among them those of drug oxidation.)

Series [3] deals with T1, P-glycoprotein (Pgp) (Homo sapiens, UniProt P08183).
T1 construct: purchased Promega (Madison, WI, USA)
Put plainly: Pgp-Glo Assay System (Pgp activity). In kind it is in vitro ADME. From the text: Impact on Pgp activity. P-glycoprotein (Pgp) is an integral plasma membrane protein that, as an ATP-dependent […] pump, actively removes xenobiotics and can cause drug interactions. Pgp plays an important role in the absorption of drugs in the gastrointestinal tract and also through the blood-brain barrier. A commercial bioluminescent Pgp-Glo™ Assay System test (Promega, Madison, WI, USA) was used to study the effect of compound 6 on Pgp activity. The operation of the test is based on measuring changes in the level of ATP consumed by membranes containing the recombinant Pgp protein in the presence of test compounds. The results were presented as % of baseline activity and compared to reference compounds: selective Pgp inhibitor Na3VO4 and verapamil stimulator.
Impact on Pgp activity—methodology. The tests were performed according to the protocol of the bioluminescent Pgp-Glo™ Assay System test provided by the Promega company (Madison, WI, USA). […] Bioluminescence was measured with a PerkinElmer multispecific EnSpire plate reader (Waltham, MA USA). […] The calculated difference between the luminescence values of the inhibitor-treated sample and the control sample was taken as 100% of the Pgp base activity and treated as a negative control in the test. […] Statistical significance was calculated by one-way ANOVA variance analysis and the Bonferroni method using GraphPad Prism 5. […]

Series [4] has as its target T2, CYP2D6 (Homo sapiens, UniProt P10635).
T2 construct: purchased Promega (Madison, WI, USA)
As to the kind of experiment: CYP2D6 P450-Glo luminescence test. The series is classed as in vitro ADME. The conditions noted are these: 10 μM. How it is done:
Effect of compound 6 on cytochrome P-450 3A4 and 2D6 activity. The research was conducted using commercial luminescence tests CYP3A4 P450-Glo™ and CYP2D6 P450-Glo™ from Promega (Madison, WI, USA) based on the methodology described in the literature (Socała, K.; Mogilski, S.; Pieróg, M.; Nieoczym, D.; Abram, M.; Szulczyk, B.; Lubelska, A.; Latacz, G.; Doboszewska, U.; Wlaź, P.; Kamiński, K. ACS Chem. Neurosci. 2018, doi: 10.1021/acschemneuro.8b00476; Latacz, G.; Lubelska, A.; Jastrzȩbska-Wiȩek, M.; Partyka, A.; Sobato, A.; Olejarz, A.; Kucwaj-Brysz, K.; Satata, G.; Bojarski, A. J.; Wesołowska, A.; Kieć-Kononowicz, K.; Handzlik, J. Chem. Biol. Drug. Des. 2017, 90, 1295-1306). The CYP isoforms selected for study are responsible for the metabolism of approximately 40-50% of the drugs available on the market, and their stimulation or inhibition determines the majority of metabolic drug interactions. […] In summary, the results obtained indicate a low probability of potential metabolic interactions caused by 6.

T1 sequence (P08183 whole entry): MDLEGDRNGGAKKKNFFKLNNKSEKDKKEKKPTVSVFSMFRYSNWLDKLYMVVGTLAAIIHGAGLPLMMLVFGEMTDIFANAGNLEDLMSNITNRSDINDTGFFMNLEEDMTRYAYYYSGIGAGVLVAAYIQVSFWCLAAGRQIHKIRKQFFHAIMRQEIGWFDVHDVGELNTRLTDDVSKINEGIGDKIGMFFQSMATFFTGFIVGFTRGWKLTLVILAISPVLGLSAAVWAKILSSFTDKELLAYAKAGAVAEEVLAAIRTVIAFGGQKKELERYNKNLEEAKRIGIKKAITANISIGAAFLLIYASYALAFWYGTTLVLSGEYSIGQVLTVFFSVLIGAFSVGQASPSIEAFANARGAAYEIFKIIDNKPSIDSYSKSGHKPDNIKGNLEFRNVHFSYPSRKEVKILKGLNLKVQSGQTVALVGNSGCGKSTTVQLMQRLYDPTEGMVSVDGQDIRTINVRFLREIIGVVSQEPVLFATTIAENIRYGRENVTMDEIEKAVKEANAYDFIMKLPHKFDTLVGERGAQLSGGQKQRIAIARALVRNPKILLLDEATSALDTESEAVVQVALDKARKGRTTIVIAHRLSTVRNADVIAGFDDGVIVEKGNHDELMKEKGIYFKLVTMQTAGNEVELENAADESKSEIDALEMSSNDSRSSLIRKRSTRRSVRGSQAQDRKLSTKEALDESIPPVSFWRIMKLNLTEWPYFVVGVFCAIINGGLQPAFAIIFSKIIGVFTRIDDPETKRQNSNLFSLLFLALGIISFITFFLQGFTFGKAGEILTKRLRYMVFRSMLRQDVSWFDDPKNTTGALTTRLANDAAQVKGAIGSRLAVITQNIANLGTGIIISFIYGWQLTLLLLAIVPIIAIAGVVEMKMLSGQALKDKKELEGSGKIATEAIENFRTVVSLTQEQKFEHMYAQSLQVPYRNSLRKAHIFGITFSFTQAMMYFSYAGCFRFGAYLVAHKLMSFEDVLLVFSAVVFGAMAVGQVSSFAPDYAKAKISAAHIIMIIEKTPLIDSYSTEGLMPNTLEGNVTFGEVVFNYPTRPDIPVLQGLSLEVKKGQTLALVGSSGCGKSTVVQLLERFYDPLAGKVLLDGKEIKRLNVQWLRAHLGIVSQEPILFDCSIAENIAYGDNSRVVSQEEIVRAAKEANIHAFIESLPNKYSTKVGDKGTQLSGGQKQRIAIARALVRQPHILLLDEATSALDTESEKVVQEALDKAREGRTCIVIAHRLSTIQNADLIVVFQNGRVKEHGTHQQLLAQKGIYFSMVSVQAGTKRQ
T2 sequence (P10635 whole entry): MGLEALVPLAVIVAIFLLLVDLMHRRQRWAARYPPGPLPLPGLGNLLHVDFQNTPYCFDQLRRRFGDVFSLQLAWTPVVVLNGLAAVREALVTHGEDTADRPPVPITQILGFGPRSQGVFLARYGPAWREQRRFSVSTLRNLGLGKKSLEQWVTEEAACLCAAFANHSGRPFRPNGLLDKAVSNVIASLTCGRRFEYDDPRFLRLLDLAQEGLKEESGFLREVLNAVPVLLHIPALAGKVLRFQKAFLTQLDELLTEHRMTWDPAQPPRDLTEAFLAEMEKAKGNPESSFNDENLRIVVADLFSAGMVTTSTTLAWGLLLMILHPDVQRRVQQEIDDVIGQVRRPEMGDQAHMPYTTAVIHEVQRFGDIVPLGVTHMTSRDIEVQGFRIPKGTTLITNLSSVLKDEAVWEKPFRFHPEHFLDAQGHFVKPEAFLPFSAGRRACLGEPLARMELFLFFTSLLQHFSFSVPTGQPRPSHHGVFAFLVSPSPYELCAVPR

Consider `O=C(C(c1ccccc1)N1C(=O)CCC1=O)N1CCN(c2cccc(C(F)(F)F)c2)CC1` (racemic) [Compound 6, 1-(2-Oxo-1-phenyl-2-(4-(3-(trifluoromethyl)phenyl)piperazin-1-yl)ethyl)pyrrolidine-2,5-dione], for which the ED50 in series [1] (Mus musculus, ip, 0.5 h, mice) is 73.2 mg/kg. Besides, the “6 Hz (44 mA): number of mice protected/number of mice tested” value in series [1] (screening, 100 mg/kg i.p., 0.5 h, mice) is 4/4. Also, the “mice protected in the 6 Hz (44 mA) test” value in series [1] (screening, 100 mg/kg, time point 0.5 h) is given as 100%. Further, the “metabolites found by UPLC after incubation with HLMs” value in series [2] (120 min incubation, UPLC/MS) is recorded as “three metabolites M1-M3”. For the same molecule, the CLint scaled at 50 µM in series [2] (human, human liver microsomes, pH 7.4, incubation with HLMs, read-out: internal clearance CLint) came out at 5.8 mL/min/kg. In series [2] (incubation with HLMs), the “internal clearance CLint” value stood at 5.6 mL/min/kg. Also, in series [3] (50 μM), the “effect on Pgp activity” value is listed as “no effect on Pgp activity”. The “Pgp activity, % of baseline activity” value in series [3] (100 μM, inhibitory effect, p<0.01) was found to be 38%. For the same molecule, in series [4], the “effect on CYP2D6 activity” value was “very weak stimulating effect”.
